Experimental data published in patent US4329347A, “Cardiotonic and antithrombotic sulfur-containing derivatives of carbostyril” (Boehringer Ingelheim GmbH, priority 1978, dated 1982).
Read-outs that look alike come from different tables or passages of the source.

Key:
[1] = test system: conscious mice; assay: Prolongation of the bleeding time (mouse tail); format: in vivo; conditions: po, 10 mg/kg orally, after 1 hour, compared to control group, read-out: Prolongation of the bleeding time in % after one hour
Method: The function of the thrombocytes can be determined by measuring the bleeding time. The normal bleeding time in human beings is in the range of 1 to 3 minutes and needs intact thrombozytes in a sufficient number. If the number of thrombocytes is normal and the bleeding time is prolonged, this signifies a disturbed function of the thrombocytes. This is found in some congenital defects of thrombocyte function (V. Willebrand's disease, for example). If, on the other hand it is the aim to prevent spontaneous aggregation of the thrombocytes and occlusion in the arterial system by antithrombotic drugs, the bleeding time should be prolonged as a consequence. Therefore, using antithrombotic substances, a prolongation of the bleeding time is expected. If the plasma coagulation system is not influenced by such a medicine, coagulation tests will give a normal result.
To measure the bleeding time, 10 mg/kg of the test compound is administered orally to conscious mice. After 1 hour, 0.5 mm of the tip of the mousetail is cut off and droplets of blood are gently removed with filter paper every 30 second. The number of drops of blood give a measure for the bleeding time (5 animals/experiment).
The numbers in the following table represent the prolongation in % compared to the control group.

[2] = test system: thrombocyte aggregation in platelet-rich plasma of healthy human donors; assay: Thrombocyte aggregation inhibiting activity by the method of Born and Cross (platelet-rich plasma); format: cell-based; conditions: optical density
Method: 1. Determination of the thrombocyte aggregation inhibiting activity by the method of Born and Cross [J. Physiol. 170, 397 (1964)]:
The thrombocyte aggregation was measured in the platelet-rich plasma of healthy human donors. The decrease in optical density was measured and recorded photometrically after the addition of adenosine diphosphate or collagen. From the angle of inclination of the density curve, the rate of aggregation was estimated (Vmax). The optical density was taken as the point on the curve where the most light was transmitted (O.D.).
The EC50 values in the tables indicate the optical density.
Small doses of collagen were chosen, but sufficient to give irreversible aggregation. To provoke maximum aggregation, about 0.01 ml of the collagen solution was added to 1 ml of platelet-rich plasma. (Commercial collagen of Hormonchemie, Munich). The adenosine diphosphate (ADP) doses were chosen to give only the first phase of the BORN curve. The necessary amount of ADP was about 1×10^-6 mol/l. Commercial ADP of Boehringer Mannheim was used.
The substance dose which produced a 50% inhibition of the thrombozytes aggregation (EC50) was determined graphically.

[3] = Acute toxicity, oral; format: in vivo; conditions: mouse, in vivo; mice, single oral dose, 14 days observation; read-out: Acute Toxicity per os
Method: (§1) The acute toxicity of the test compounds was determined on groups of 10 mice each after oral administration of a single dose of 1,000 mg/kg (observation time: 14 days).

[4] = test system: mice; assay: Acute toxicity, oral; format: in vivo; conditions: single oral dose of 1,000 mg/kg, 14 days observation
Method: as §1

[5] = test system: phosphodiesterase (PDE), supernatant of human blood platelets; assay: PDE inhibition (3H-cAMP hydrolysis); format: biochemical; conditions: human blood platelet PDE, 1 μmol/liter 3H-cAMP, pH 7.4, 15 minutes, 37° C.
Method: cAMP is hydrolysed to AMP by phosphodiesterase (PDE) from various sources, including blood platelets. This hydrolysis is inhibited by PDE inhibitors according to the concentration.
The phosphodiesterase used was the 10,000×g supernatant of human blood platelets which had been frozen with water and thawed out again.
An amount of 0.3 ml of a mixture which contained 0.1 mole/liter of trihydroxy-aminomethane (pH 7.4), 3 mmole/liter of magnesium chloride, 1 mmole/liter of AMP, 1 μmol/liter of ^3 H-cAMP (specific activity about 10 MBq/μmol), PDE as well as the substance to be tested and water for the control were incubated for 15 minutes at 37° C.
The incubation was stopped by the addition of 0.5 ml of zinc sulfate (0.266 mole/liter) and 0.5 ml of barium hydroxide (0.266 mole/liter), the precipitate was centrifuged and the activity remaining in the supernatant of the unreacted ^3 H-cAMP was determined. From a comparison of the substance preparations and the control preparations, the concentration for a 50% inhibiting activity (IC50) of the respective substance was calculated.

[6] = test system: Platelet Thromboses in the Rat; assay: Influence on platelet thromboses in the rat (electrical irritation of a vein); format: in vivo; conditions: male rats, five animals per dose, 20 minutes observation, vs. untreated group; dose not given
Method: Literature: H. Poliwoda, J. Lilli, G. Hagemann, D. Schyma: Z. ges. exp. Med., 145, 252 (1968)
Male rats (body weight between 70 and 90 grams) received an intraperitoneal Nembutal anesthesia (dose: 50 to 60 mg/kg). To avoid hypothermia, they were positioned on a heated test table (about 37° C.). The respiratory passage was held free by insertion of a tracheal cannula.
After a transverse abdominal incision was made, an intestinal loop was exposed and fixed, and a vein, with a diameter of about 300 μ was prepared. A monopolar platinum electrode embedded in glass and having a tip diameter of about 100μ was applied to the vein as an irritating cathode. The indifferent electrode was applied to the same vessel opposite the cathode. The irritation was provoked by 150 volts of direct current for a period of 100 milliseconds. After the irritation, the area of observation was continuously rinsed with warm (37° C.) physiological salt solution.
The formation and growth of the thrombosis was followed under a binocular microscope over a time period of 20 minutes. During the entire period of observation, the percentage of the vessel volume closed by the thrombosis was estimated at different time intervals.
Five animals per dose were used, and the results were averaged.
In the test compound experiments, the average size of the thrombosis in the treated animal group was compared with that of an untreated animal group. The result was given as "percentage reduction of the average thrombosis size." The following table contains the values obtained.

[7] = ADP-induced (about 1×10^-6 mol/l), read-out: EC50 (50% inhibition of thrombocyte aggregation), ADP
[8] = collagen-induced, read-out: EC50 (50% inhibition of thrombocyte aggregation), Collagen

Row | Structure (SMILES) | change in vivo at 10 mg/kg [1] [%] | EC50 [2, 7] [nM] | EC50 [2, 8] [nM] | LD50 at 336 h [3] [mg/kg] | animals died (acute toxicity per os) [4] | IC50 [5] [nM] | Percentage Reduction of the Average Thrombosis Size [6] [%]
1 | O=C1CCc2cc(OCCCCSc3ccccc3)ccc2N1 [A, 6-(4-Phenylmercapto-butoxy)-3,4-dihydro-carbostyril] | 145 | > 100000 | 50000 | > 1000 | 0 out of 10 animals | 780 | –
2 | Nc1c(Br)cc([S+]([O-])CCCCOc2ccc3c(c2)CCC(=O)N3)cc1Br (stereo not drawn) [AA, 6-[4-(3,5-Dibromo-4-aminophenylsulfinyl)-butoxy]-3,4-dihydrocarbostyril] | – | – | – | – | – | 250 | –
3 | Nc1c(Br)cc([S+]([O-])CCCCOc2ccc3[nH]c(=O)ccc3c2)cc1Br (stereo not drawn) [BB, 6-[4-(3,5-Dibromo-4-aminophenylsulfinyl)-butoxy]-carbostyril] | – | – | – | – | – | 50 | –
4 | O=C1CCc2cc(OCCCC[S+]([O-])c3ccc(C4CCCCC4)cc3)ccc2N1 (stereo not drawn) [CC, 6-[4-(4-Cyclohexylphenylsulfinyl)-butoxy]-3,4-dihydro-carbostyril] | – | – | – | – | – | 1600 | –
5 | O=C1CCc2cc(OCCCCSc3ccccn3)ccc2N1 [D, 6-[4-(2-Pyridyl-mercapto)-butoxy]-3,4-dihydro-carbostyril] | 76 | > 100000 | 45000 | > 1000 | 0 out of 10 animals | 1600 | –
6 | O=c1ccc2cc(OCCCC[S+]([O-])c3ccc(C4CCCCC4)cc3)ccc2[nH]1 (stereo not drawn) [DD, 6-[4-(4-Cyclohexylphenylsulfinyl)-butoxy]-carbostyril] | – | – | – | – | – | 40 | 11
7 | CC(C)(C)c1ccc([S+]([O-])CCCCOc2ccc3[nH]c(=O)ccc3c2)cc1 (stereo not drawn) [EE, 6-[4-(4-tert.-Butylphenylsulfinyl)-butoxy]-carbostyril] | – | – | – | – | – | 30 | –
8 | O=C1CCc2cc(OCC[S+]([O-])c3ccccc3)ccc2N1 (stereo not drawn) [G, 6-(2-Phenylsulfinyl-ethoxy)-3,4-dihydro-carbostyril] | 5 | 17000 | 3500 | > 1000 | 0 out of 10 animals | 3400 | –
9 | O=C1CCc2cc(OCCCC[S+]([O-])Cc3ccccc3)ccc2N1 (stereo not drawn) [H, 6-(4-Benzylsulfinyl-butoxy)-3,4-dihydro-carbostyril] | 29 | 14000 | 2500 | > 1000 | 0 out of 10 animals | 1600 | –
10 | CC(C)(C)[S+]([O-])CCCCOc1ccc2c(c1)CCC(=O)N2 (stereo not drawn) [HH, 6-(4-tert.Butylsulfinyl-butoxy)-3,4-dihydrocarbostyril] | – | – | – | – | – | – | 19
11 | O=C1CCc2cccc(OCCCCSc3ccccc3)c2N1 [II, 8-(4-Phenylmercapto-butoxy)-3,4-dihydro-carbostyril] | – | – | – | – | – | – | 4
12 | O=c1ccc2cc(OCCCC[S+]([O-])c3ccccn3)ccc2[nH]1 (stereo not drawn) [JJ, 6-[4-(2-Pyridylsulfinyl)-butoxy]-carbostyril] | – | – | – | – | – | – | 29
13 | O=C1CCc2cc(OCCCC[S+]([O-])C3CCCCC3)ccc2N1 (stereo not drawn) [K, 6-(4-Cyclohexylsulfinyl-butoxy)-3,4-dihydro-carbostyril] | 12 | 12000 | 4500 | > 1000 | 0 out of 10 animals | 2500 | –
14 | Cc1cc(=O)[nH]c2ccc(OCCCC[S+]([O-])c3ccccn3)cc12 (stereo not drawn) [KK, 4-Methyl-6-[4-(2-pyridylsulfinyl)-butoxy]-carbostyril] | – | – | – | – | – | – | 17
15 | O=c1ccc2cc(OCCCC[S+]([O-])c3ccccc3)ccc2[nH]1 (stereo not drawn) [N, 6-(4-Phenylsulfinyl-butoxy)-carbostyril] | – | 3000 | 600 | – | – | 470 | 24
16 | CC(C)(C)c1cc([S+]([O-])CCCCOc2ccc3[nH]c(=O)ccc3c2)cc(C(C)(C)C)c1O (stereo not drawn) [O, 6-[4-(4-Hydroxy-3,5-di-tert. butylphenyl-sulfinyl)-butoxy]-carbostyril] | 73 | 500 | 200 | > 1000 | 0 out of 10 animals | 79 | 17
17 | O=c1ccc2cc(OCCCC[S+]([O-])c3ccc(Cl)c(Cl)c3)ccc2[nH]1 (stereo not drawn) [P, 6-[4-(3,4-Dichlorophenyl-sulfinyl)-butoxy]-carbostyril] | 12 | 1800 | 200 | > 1000 | 0 out of 10 animals | 220 | 15
18 | O=C1CCc2cc(OCCCCS(=O)(=O)c3ccc(Cl)c(Cl)c3)ccc2N1 [R, 6-[4-(3,4-Dichlorophenyl-sulfonyl)-butoxy]-3,4-dihydro-carbostyril] | 30 | 25000 | 1500 | > 1000 | 0 out of 10 animals | 1800 | –
19 | O=c1ccc2cc(OCCCC[S+]([O-])c3ccc(-c4ccccc4)cc3)ccc2[nH]1 (stereo not drawn) [V, 6-[4-(4-Biphenylylsulfinyl)-butoxy]-carbostyril] | – | – | – | – | – | 120 | –
20 | O=c1ccc2cc(OCCCC[S+]([O-])c3ccc4ccccc4n3)ccc2[nH]1 (stereo not drawn) [W, 6-[4-(2-Quinolylsulfinyl)-butoxy]-carbostyril] | – | – | – | – | – | 140 | –
21 | O=c1ccc2cc(OCCCC[S+]([O-])C3CCCCC3)ccc2[nH]1 (stereo not drawn) [X, 6-(4-Cyclohexylsulfinyl-butoxy)-carbostyril] | – | – | – | – | – | 700 | –
22 | O=c1ccc2c(Br)c(OCCCC[S+]([O-])c3ccccc3)ccc2[nH]1 (stereo not drawn) [Y, 5-Bromo-6-(4-phenylsulfinyl-butoxy)-carbostyril] | – | – | – | – | – | 100 | –
23 | CN(C(=O)C[S+]([O-])CCOc1ccc2[nH]c(=O)ccc2c1)C1CCCCC1 (stereo not drawn) [Z, 6-[2-(N-Methyl-N-cyclohexyl-carbamidomethyl-sulfinyl)-ethoxy]-carbostyril] | – | – | – | – | – | 500 | –
